From patent US12630498B2 (Genzyme Corporation, priority 2019, dated 2026) come the findings set out here.

In experiment [1] the target is T1, CFTR-mediated transepithelial chloride transport in primary human bronchial epithelial cells from a ΔF508 homozygous CF donor (Homo sapiens, UniProt P13569, DEL508-508).
T1 construct: Primary human bronchial epithelial cells from a ΔF508 homozygous CF donor; host or cells: primary CF-HBE cells, ΔF508 homozygous donor
Kind of experiment: TECC24 recording of CFTR-mediated transepithelial chloride transport in CF-HBE cells (AUC fold over DMSO). The experiment is classed as cell-based. The conditions noted are these: test agent 10 μM, 48 hours incubation, AUC of forskolin-stimulated IEQ relative to DMSO. The procedure, abridged:
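Equivalent Cl⁻ current was derived from transepithelial voltage and resistance, and its AUC from forskolin (10 μM) to CFTRinh-172 (20 μM) was divided by the DMSO AUC. Benzamil 10 μM blocked ENaC. Cells were ΔF508-homozygous primary bronchial epithelia pretreated 48 h at 36.5 °C in IL-13 medium.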

The target of experiment [2] is T2, human Cystic Fibrosis Transmembrane Conductance Regulator (CFTR) harboring the ΔF508 mutation (Homo sapiens, UniProt P13569, DEL508-508).
T2 construct: expressed in transfected cells; host or cells: H441 carcinoma line (G418-selected)
T2 sequence (P13569 with tags, fused parts or gaps DEL508-508): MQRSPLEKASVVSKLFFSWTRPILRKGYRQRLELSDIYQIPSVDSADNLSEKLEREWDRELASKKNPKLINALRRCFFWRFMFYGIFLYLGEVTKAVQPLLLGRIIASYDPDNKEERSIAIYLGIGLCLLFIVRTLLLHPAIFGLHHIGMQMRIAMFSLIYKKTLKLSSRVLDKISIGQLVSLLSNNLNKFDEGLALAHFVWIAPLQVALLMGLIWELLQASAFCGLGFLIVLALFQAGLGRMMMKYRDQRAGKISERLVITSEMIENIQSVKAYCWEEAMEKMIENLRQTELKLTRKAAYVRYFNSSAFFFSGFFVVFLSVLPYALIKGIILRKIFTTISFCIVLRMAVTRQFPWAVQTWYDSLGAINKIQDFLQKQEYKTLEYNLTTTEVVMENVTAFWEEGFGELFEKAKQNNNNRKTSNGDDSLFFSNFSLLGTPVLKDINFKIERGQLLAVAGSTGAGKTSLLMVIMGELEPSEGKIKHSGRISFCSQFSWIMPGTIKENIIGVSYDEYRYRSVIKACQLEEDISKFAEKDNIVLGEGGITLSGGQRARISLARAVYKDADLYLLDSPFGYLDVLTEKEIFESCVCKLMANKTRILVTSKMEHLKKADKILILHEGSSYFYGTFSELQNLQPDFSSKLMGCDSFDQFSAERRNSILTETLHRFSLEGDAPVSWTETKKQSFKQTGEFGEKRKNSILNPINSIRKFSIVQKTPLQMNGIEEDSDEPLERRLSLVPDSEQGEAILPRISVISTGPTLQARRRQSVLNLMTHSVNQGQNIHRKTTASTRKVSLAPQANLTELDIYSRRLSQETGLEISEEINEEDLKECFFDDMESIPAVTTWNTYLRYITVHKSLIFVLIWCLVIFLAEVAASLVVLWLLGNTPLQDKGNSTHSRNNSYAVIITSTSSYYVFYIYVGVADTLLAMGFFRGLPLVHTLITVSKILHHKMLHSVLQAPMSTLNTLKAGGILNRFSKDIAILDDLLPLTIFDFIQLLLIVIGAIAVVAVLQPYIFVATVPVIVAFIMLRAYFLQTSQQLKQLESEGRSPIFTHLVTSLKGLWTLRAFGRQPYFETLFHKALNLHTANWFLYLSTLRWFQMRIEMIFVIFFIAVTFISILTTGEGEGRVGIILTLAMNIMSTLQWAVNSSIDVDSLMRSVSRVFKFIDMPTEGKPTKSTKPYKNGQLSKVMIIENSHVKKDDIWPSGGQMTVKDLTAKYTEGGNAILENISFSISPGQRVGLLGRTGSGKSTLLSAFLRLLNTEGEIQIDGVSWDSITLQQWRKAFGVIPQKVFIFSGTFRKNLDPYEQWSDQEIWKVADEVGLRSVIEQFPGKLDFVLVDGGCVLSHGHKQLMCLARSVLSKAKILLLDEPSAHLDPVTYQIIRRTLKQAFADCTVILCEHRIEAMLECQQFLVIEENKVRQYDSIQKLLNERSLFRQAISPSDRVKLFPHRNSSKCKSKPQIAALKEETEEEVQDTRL
Kind of experiment: H441 cell ΔF508-CFTR-HRP cell surface assay (Emax and EC50). Type of experiment: cell-based. To be noted: for Emax: NCI-H441, NA = Not active. The procedure, abridged: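 H441 and 41o- bronchial epithelial cells expressing ΔF508-CFTR with an extracellular-loop-4 HRP tag were treated with a 15-point compound series (24.5–0.001 μM) for two nights, H441 at 27° C, 41o- at 37° C with 0.0005 mg/ml doxycycline. Surface HRP luminescence read; % of maximum VX809 signal and EC50 derived.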

The structures appear in SMILES notation.

T1 sequence (P13569 with tags, fused parts or gaps DEL508-508): as above

In the case of `CCC(C)(C)[C@H](NC(=O)c1ccc2c(F)cccc2c1OCc1ccc(C(F)(F)F)cc1)C(=O)O` [Example 230, (2S)-2-[[5-fluoro-1-[[4-(trifluoromethyl)phenyl]methoxy]naphthalene-2-carbonyl]amino]-3,3-dimethyl-pentanoic Acid], in experiment [1], the “TECC24 AUC fold over DMSO @10 μM” value was “A (“A” refers to AUC @10 uM >6)”. In experiment [2], this compound gave an EC50 of 600 nM and a maximum response (Emax) of 152%.

On to `CC(C)(C)[C@H](NC(=O)c1ccc2ccccc2c1OCc1ccc([N+](=O)[O-])cc1)C(=O)O` [Example 231, (2S)-3,3-dimethyl-2-[[1-[(4-nitrophenyl)methoxy]naphthalene-2-carbonyl]amino]butanoic Acid], for which the “TECC24 AUC fold over DMSO @10 μM” value in experiment [1] is listed as “C (“C” refers to AUC @10 uM <4)”. In experiment [2], this compound showed an EC50 of 7800 nM and an Emax of 70.1%.

With `Cc1ccc2c(OCc3ccc(C(F)(F)F)cc3)c(C(=O)N[C@H](C(=O)O)C(C)(C)C)ccc2c1` [Example 233, (2S)-3,3-dimethyl-2-[[6-methyl-1-[[4-(trifluoromethyl)phenyl]methoxy]naphthalene-2-carbonyl]amino]butanoic Acid], in experiment [1], the “TECC24 AUC fold over DMSO @10 μM” value is “A (“A” refers to AUC @10 uM >6)”. In addition, in experiment [2], the EC50 was determined as 12200 nM and the maximum response (Emax) stood at 156%.

On to `C#CC(C)(C)C(NC(=O)c1ccc2ccccc2c1OCc1ccc(OC(F)(F)F)cc1)C(=O)O` (stereo not drawn) [Example 234, 3,3-dimethyl-2-[[1-[[4-(trifluoromethoxy)phenyl]methoxy]naphthalene-2-carbonyl]amino]pent-4-ynoic Acid], for which the “TECC24 AUC fold over DMSO @10 μM” value in experiment [1] is recorded as “A (“A” refers to AUC @10 uM >6)”. In experiment [2], this compound registered a half-maximal effective concentration (EC50) of 1300 nM and a maximum response (Emax) of 140%.

`CC(C)(C)[C@H](NC(=O)c1ccc2c(F)cccc2c1OCc1ccc(C(F)(F)F)cc1)C(=O)O` [Example 236, (2S)-2-[[5-fluoro-1-[[4-(trifluoromethyl)phenyl]methoxy]naphthalene-2-carbonyl]amino]-3,3-dimethyl-butanoic Acid]: the “TECC24 AUC fold over DMSO @10 μM” value in experiment [1] was “B (“B” refers to AUC @10 uM between 4-6)”. In experiment [2], this compound gave an EC50 of 1000 nM and a maximum response (Emax) of 130%.

Take `CC(C)(C)[C@H](NC(=O)c1ccc2ccc(Cl)cc2c1OCc1ccc(OC(F)(F)F)cc1)C(=O)O` [Example 237, (S)-2-(7-chloro-1-((4-(trifluoromethoxy)benzyl)oxy)-2-naphthamido)-3,3-dimethyl Butanoic Acid]: the “TECC24 AUC fold over DMSO @10 μM” value in experiment [1] is “A (“A” refers to AUC @10 uM >6)”. In experiment [2], a half-maximal response (EC50) required 100 nM and the Emax amounted to 275%.

With `O=C(NC(C(=O)O)C1(C(F)(F)F)CC1)c1ccc2ccc(Cl)cc2c1OCc1ccc(OC(F)(F)F)cc1` (stereo not drawn) [Example 238, 2-(7-chloro-1-((4-(trifluoromethoxy)benzyl)oxy)-2-naphthamido)-2-(1-(trifluoromethyl)cyclopropyl)acetic Acid], in experiment [1], the “TECC24 AUC fold over DMSO @10 μM” value was “C (“C” refers to AUC @10 uM <4)”. In experiment [2], this compound gave an EC50 of 800 nM and an Emax of 143%.

For `CC(C)(C)[C@H](NC(=O)c1ccc2ccc(F)cc2c1OCc1ccc(OC(F)(F)F)cc1)C(=O)O` [Example 239, (S)-2-(7-fluoro-1-((4-(trifluoromethoxy)benzyl)oxy)-2-naphthamido)-3,3-dimethyl Butanoic Acid], the “TECC24 AUC fold over DMSO @10 μM” value in experiment [1] is on record as “A (“A” refers to AUC @10 uM >6)”. In experiment [2], this compound showed a 50% effective concentration (EC50) of 300 nM and an Emax of 235%.

For `O=C(NC(C(=O)O)C1(C(F)(F)F)CC1)c1ccc2ccc(F)cc2c1OCc1ccc(OC(F)(F)F)cc1` (stereo not drawn) [Example 240, 2-(7-fluoro-1-((4-(trifluoromethoxy)benzyl)oxy)-2-naphthamido)-2-(1-(trifluoromethyl)cyclopropyl)acetic Acid], the “TECC24 AUC fold over DMSO @10 μM” value in experiment [1] is on record as “C (“C” refers to AUC @10 uM <4)”. In experiment [2], the half-maximal effective concentration (EC50) turned out to be 800 nM and the Emax was 122%.

Regarding `CC(C)(C)[C@H](NC(=O)c1ccc2ccc(F)cc2c1OCc1ccc(C(F)(F)F)cc1)C(=O)O` [Example 241, (S)-2-(7-fluoro-1-((4-(trifluoromethyl)benzyl)oxy)-2-naphthamido)-3,3-dimethylbutanoic Acid], in experiment [1], the “TECC24 AUC fold over DMSO @10 μM” value is on record as “A (“A” refers to AUC @10 uM >6)”. Also, in experiment [2], the EC50 came to 100 nM and the maximal effect (Emax) came out at 236%.

In the case of `CCC(C)(C)[C@H](NC(=O)c1ccc2ccc(C(F)F)cc2c1OCc1ccc(C(F)(F)F)cc1)C(=O)O` [Example 242, (2S)-2-[[7-(difluoromethyl)-1-[[4-(trifluoromethyl)phenyl]methoxy]naphthalene-2-carbonyl]amino]-3,3-dimethyl-pentanoic Acid], in experiment [1], the “TECC24 AUC fold over DMSO @10 μM” value was “A (“A” refers to AUC @10 uM >6)”. Also, in experiment [2], the 50% effective concentration (EC50) worked out at 100 nM and the maximum response (Emax) was 368%.

Turning to `CC(C)(C)[C@H](NC(=O)c1ccc2ccc(-c3cscn3)cc2c1OCc1ccc(C(F)(F)F)cc1)C(=O)O` [Example 243, (2S)-3,3-dimethyl-2-[[7-thiazol-4-yl-1-[[4-(trifluoromethyl)phenyl]methoxy]naphthalene-2-carbonyl]amino]butanoic Acid], the “TECC24 AUC fold over DMSO @10 μM” value in experiment [1] is “A (“A” refers to AUC @10 uM >6)”. Further, in experiment [2], a half-maximal effect (EC50) was put at 500 nM and the Emax was 159%.

On to `CC(C)(C)[C@H](NC(=O)c1ccc2ccc(C(F)F)cc2c1OCc1ccc(C(F)(F)F)cc1)C(=O)O` [Example 244, (2S)-2-[[7-(difluoromethyl)-1-[[4-(trifluoromethyl)phenyl]methoxy]naphthalene-2-carbonyl]amino]-3,3-dimethyl-butanoic Acid], for which, in experiment [1], the “TECC24 AUC fold over DMSO @10 μM” value is listed as “A (“A” refers to AUC @10 uM >6)”. In experiment [2], the EC50 was found to be 100 nM and the Emax came out at 365%.

Take `CC(C)(C)[C@H](NC(=O)c1ccc2ccc(C(F)F)cc2c1OCc1ccc(OC(F)(F)F)cc1)C(=O)O` [Example 245, (2S)-2-[[7-(difluoromethyl)-1-[[4-(trifluoromethoxy)phenyl]methoxy]naphthalene-2-carbonyl]amino]-3,3-dimethyl-butanoic Acid]: the “TECC24 AUC fold over DMSO @10 μM” value in experiment [1] is on record as “A (“A” refers to AUC @10 uM >6)”. In experiment [2], the EC50 was found to be 100 nM and the Emax came to 284%.

For `CCCC(C)(C)[C@H](NC(=O)c1ccc2ccc(C(F)F)cc2c1OCc1ccc(C(F)(F)F)cc1)C(=O)O` [Example 246, (2S)-2-[[7-(difluoromethyl)-1-[[4-(trifluoromethyl)phenyl]methoxy]naphthalene-2-carbonyl]amino]-3,3-dimethylhexanoic Acid], the “TECC24 AUC fold over DMSO @10 μM” value in experiment [1] is given as “A (“A” refers to AUC @10 uM >6)”. In experiment [2], this compound returned an EC50 of 100 nM and an Emax of 442%.

On to `CC(C)(C)[C@H](NC(=O)c1ccc2ccc(Br)cc2c1OCc1ccc(OC(F)(F)F)cc1)C(=O)O` [Example 247, (2S)-2-[[7-bromo-1-[[4-(trifluoromethoxy)phenyl]methoxy]naphthalene-2-carbonyl]amino]-3,3-dimethyl-butanoic Acid], for which the “TECC24 AUC fold over DMSO @10 μM” value in experiment [1] is “A (“A” refers to AUC @10 uM >6)”. Also, in experiment [2], the EC50 came out at 100 nM and the Emax came to 224%.

Turning to `CC(C)(C)[C@H](NC(=O)c1ccc2ccc(C#N)cc2c1OCc1ccc(C(F)(F)F)cc1)C(=O)O` [Example 248, (2S)-2-[[7-cyano-1-[[4-(trifluoromethyl)phenyl]methoxy]naphthalene-2-carbonyl]amino]-3,3-dimethyl-butanoic Acid], the “TECC24 AUC fold over DMSO @10 μM” value in experiment [1] is given as “A (“A” refers to AUC @10 uM >6)”. In experiment [2], this compound showed an EC50 of 1500 nM and a maximum response (Emax) of 206%.

Consider `Cc1ccc2ccc(C(=O)N[C@H](C(=O)O)C(C)(C)C)c(OCc3ccc(OC(F)(F)F)cc3)c2c1` [Example 249, (2S)-3,3-dimethyl-2-[[7-methyl-1-[[4-(trifluoromethoxy)phenyl]methoxy]naphthalene-2-carbonyl]amino]butanoic Acid], for which the “TECC24 AUC fold over DMSO @10 μM” value in experiment [1] is “A (“A” refers to AUC @10 uM >6)”. In experiment [2], this compound displayed a concentration for a half-maximal effect (EC50) of 200 nM and an Emax of 305%.

For the compound `CCC(C)(C)[C@H](NC(=O)c1ccc2ccc(C(F)F)cc2c1OCc1ccc(OC(F)(F)F)cc1)C(=O)O` [Example 250, (2S)-2-[[7-(difluoromethyl)-1-[[4-(trifluoromethoxy)phenyl]methoxy]naphthalene-2-carbonyl]amino]-3,3-dimethyl-pentanoic Acid], the “TECC24 AUC fold over DMSO @10 μM” value in experiment [1] is “A (“A” refers to AUC @10 uM >6)”. In experiment [2], the concentration giving a half-maximal response (EC50) was determined as 100 nM and the maximal response (Emax) amounted to 270%.

Take `CCCC(C)(CC)[C@H](NC(=O)c1ccc2ccc(Cl)cc2c1OCc1ccc(OC(F)(F)F)cc1)C(=O)O` (stereo partly drawn) [Example 251, (2S)-2-[[7-chloro-1-[[4-(trifluoromethoxy)phenyl]methoxy]naphthalene-2-carbonyl]amino]-3-ethyl-3-methyl-hexanoic Acid]: the “TECC24 AUC fold over DMSO @10 μM” value in experiment [1] was “A (“A” refers to AUC @10 uM >6)”. Further, in experiment [2], the EC50 worked out at 100 nM and the maximal response (Emax) turned out to be 267%.

In the case of `CC(C)(C)[C@H](NC(=O)c1ccc2ccc(-c3cscn3)cc2c1OCc1ccc(OC(F)(F)F)cc1)C(=O)O` [Example 252, (2S)-3,3-dimethyl-2-[[7-thiazol-4-yl-1-[[4-(trifluoromethoxy)phenyl]methoxy]naphthalene-2-carbonyl]amino]butanoic Acid], the “TECC24 AUC fold over DMSO @10 μM” value in experiment [1] is recorded as “A (“A” refers to AUC @10 uM >6)”. In addition, in experiment [2], a half-maximal effect (EC50) was put at 600 nM and the Emax came to 110%.
